In US20230053437A1, “LIPID COMPOUNDS AND LIPID NANOPARTICLE COMPOSITIONS” (Suzhou Abogen Biosciences Co., Ltd., priority 2020, published 2023):

Columns and labels:
Format in all cases: physicochemical
[1] = Lipid nanoparticle size by dynamic light scattering (Malvern Zetasizer Nano ZS); conditions: LNP: cationic lipid/DSPC/cholesterol/PEG-lipid 50:10:38.5:1.5 with hEPO mRNA
Method: (§1) Briefly, a cationic lipid provided herein, DSPC, cholesterol, and PEG-lipid were solubilized in ethanol at a molar ratio of 50:10:38.5:1.5, and mRNA were diluted in 10 to 50 mM citrate buffer, pH=4. The LNPs were prepared at a total lipid to mRNA weight ratio of approximately 10:1 to 30:1 by mixing the ethanolic lipid solution with the aqueous mRNA solution at a volume ratio of 1:3 using a microfluidic apparatus, total flow rate ranging from 9-30 mL/min. Ethanol were thereby removed and replaced by DPBS using dialysis. Finally, the lipid nanoparticles were filtered through a […] sterile filter.
(§2) Lipid nanoparticle size were determined by dynamic light scattering using a Malvern Zetasizer Nano ZS (Malvern UK) using a 173° backscatter detection mode. The encapsulation efficiency of lipid nanoparticles were determined using a Quant-it Ribogreen RNA quantification assay kit (Thermo Fisher Scientific, UK) according to the manufacturer's instructions.

[2] = Encapsulation efficiency of lipid nanoparticles, Quant-it Ribogreen RNA quantification assay; conditions: LNP with hEPO mRNA
Method: as §1, §2

[3] = Apparent pKa of LNP formulations, TNS fluorescence assay; conditions: LNP cationic lipid/DSPC/cholesterol/DMG-PEG 50/10/38.5/1.5 mol %, pH 3 to 9
Method: As reported in literature, the apparent pKa of LNP formulations correlates with the delivery efficiency of LNPs for nucleic acids in vivo. The apparent pKa of each formulation was determined using an assay based on fluorescence of 2-(p-toluidino)-6-napthalene sulfonic acid (TNS). LNP formulations comprising of cationic lipid/DSPC/cholesterol/DMG-PEG (50/10/38.5/1.5 mol %) in PBS were prepared as described above. TNS was prepared as a 300 uM stock solution in distilled water. LNP formulations were diluted to 0.1 mg/ml total lipid in 3 mL of buffered solutions containing 50 mM sodium citrate, 50 mM sodium phosphate, 50 mM sodium borate, and 30 mM sodium chloride where the pH ranged from 3 to 9. An aliquot of the TNS solution was added to give a final concentration of 0.1 mg/ml and following vortex mixing fluorescence intensity was measured at room temperature in a Molecular Devices Spectramax iD3 spectrometer using excitation and mission wavelengths of 325 nm and 435 nm. A sigmoidal best fit analysis was applied to the fluorescence data and the pKa value was measured as the pH giving rise to half-maximal fluorescent intensity.

Row | Compound | polydispersity [1] | size (nm) [1] [nm] | Encapsulation Efficiency [2] [%] | Apparant Pka [3]
1 | CCCCCCCCCCCC(=O)OCC1(COC(=O)CCCCCCCCCCC)CCN(C(=O)CCN2CCCCCCC2)CC1 [Compound 8] | 0.227 | 74.14 | 91.6 | 7.58
2 | CCCCCCCCCCCC(=O)OCC1(COC(=O)CCCCCCCCCCC)CCN(C(=O)CCN(C)CCCn2ccc(N)nc2=O)CC1 [Compound 14] | 0.092 | 67.29 | 92.5 | 8.22
3 | CCCCCCCCC(CCCCCC)COC(=O)CCCCCC(=O)OCC1(COC(=O)CCCCCC(=O)OCC(CCCCCC)CCCCCCCC)CCN(C(=O)CCN(C)CCO)CC1 (stereo not drawn) [Compound 56] | 0.284 | 83.06 | 101.1 | 11.73
4 | CCCCCCCCC(CCCCCC)COC(=O)CCCCCC(=O)OCC1(COC(=O)CCCCCC(=O)OCC(CCCCCC)CCCCCCCC)CCN(C(=O)CCN2CCCCCC2)CC1 (stereo not drawn) [Compound 54] | 0.168 | 84.09 | 99.7 | 8.31
5 | CCCCCCCCC(CCCCCC)COC(=O)CCCCCC(=O)OCC1(COC(=O)CCCCCC(=O)OCC(CCCCCC)CCCCCCCC)CCN(C(=O)CCN(C)C)CC1 (stereo not drawn) [Compound 51] | 0.424 | 103.3 | 101.7 | 7.46
6 | CCCCCCCCCCCC(=O)OCC1(COC(=O)CCCCCCCCCCC)CCN(CCCCCCO)CC1 [Compound 21] | 0.198 | 127.8 | 73.2 | 6.71
7 | CCCCCCCCCCCC(=O)OCC1(COC(=O)CCCCCCCCCCC)CCN(C(=O)CCN(C)CCCn2cnc3c(N)ncnc32)CC1 [Compound 15] | 0.153 | 63.65 | 94.2 | 6.65
8 | CCCCCCCCC(CCCCCC)COC(=O)CCCCCC(=O)OCC1(COC(=O)CCCCCC(=O)OCC(CCCCCC)CCCCCCCC)CCN(C(=O)CCCN2CCCCC2)CC1 (stereo not drawn) [Compound 59] | 0.378 | 109.8 | 102.1 | 11.77
9 | CCCCCCCCCCCC(=O)OCC1(COC(=O)CCCCCCCCCCC)CCN(CCCO)CC1 [Compound 18] | 0.212 | 105.9 | 94.0 | 7.17
10 | CCCCCCCCC(CCCCCC)COC(=O)CCCCCC(=O)OCC1(COC(=O)CCCCCC(=O)OCC(CCCCCC)CCCCCCCC)CCN(C(=O)CCCN2CCOCC2)CC1 (stereo not drawn) [Compound 60] | 0.048 | 90.17 | 91.7 | 7.44
11 | CCCCCCCCCCCC(=O)OCC1(COC(=O)CCCCCCCCCCC)CCN(C(C)CO)CC1 (stereo not drawn) [Compound 17] | 0.159 | 54.04 | 96.6 | 7.68
12 | CCCCCCCCCCCC(=O)OCC1(COC(=O)CCCCCCCCCCC)CCN(C(=O)CCCN2CCOCC2)CC1 [Compound 43] | 0.214 | 89.71 | 69.9 | 6.83
13 | CCCCCCCCCOC(=O)CCC1(CCC(=O)OCCCCCCCCC)CCN(C(=O)CCN(C)C)CC1 [Compound 63] | 0.113 | 82.74 | 97.4 | 7.859
14 | CCCCCCCCC(CCCCCC)COC(=O)CCCCCC(=O)OCC1(COC(=O)CCCCCC(=O)OCC(CCCCCC)CCCCCCCC)CCN(C(=O)CCN(CC)CCO)CC1 (stereo not drawn) [Compound 57] | 0.276 | 74.16 | 100.4 | 8.80
15 | CCCCCCCCCCCC(=O)OCC1(COC(=O)CCCCCCCCCCC)CCN(C(=O)CCN2CCCCC2)CC1 [Compound 6] | 0.064 | 100 | 89.2 | 6.85
16 | CCCCCCCCCCCC(=O)OCC1(COC(=O)CCCCCCCCCCC)CCN(CCCCCO)CC1 [Compound 20] | 0.161 | 81.62 | 92.6 | 8.23
17 | CCCCCCCC(=O)OCC1(COC(=O)CCCCCCC)CCN(CCO)CC1 [Compound 62] | 0.122 | 120.8 | 94.6 | 6.972
18 | CCCCCCCCC(CCCCCC)COC(=O)CCCCCC(=O)OCC1(COC(=O)CCCCCC(=O)OCC(CCCCCC)CCCCCCCC)CCN(C(=O)CCN2CCCC2)CC1 (stereo not drawn) [Compound 53] | 0.316 | 94.1 | 102.1 | 8.09
19 | CCCCCCCCCCCC(=O)OCC1(COC(=O)CCCCCCCCCCC)CCN(C(=O)CCCN2CCCCCCC2)CC1 [Compound 42] | 0.298 | 78.03 | 96.1 | 7.45
20 | CCCCCCCCCCCC(=O)OCC1(COC(=O)CCCCCCCCCCC)CCN(C(=O)CCCN2CCCC2)CC1 [Compound 39] | 0.42 | 89.41 | 97.0 | 13.20
21 | CCCCCCCCC(CCCCCC)COC(=O)CCCCCC(=O)OCC1(COC(=O)CCCCCC(=O)OCC(CCCCCC)CCCCCCCC)CCN(C(=O)CCCN2CCCC2)CC1 (stereo not drawn) [Compound 58] | 0.356 | 97.85 | 102.4 | 13.72
22 | CCCCC/C=C\C/C=C\CCCCCCCC(=O)OCC1(COC(=O)CCCCCCC/C=C\C/C=C\CCCCC)CCN(C(=O)CCN2CCCC2)CC1 [Compound 50] | 0.327 | 86.44 | 97.8 | 10.76

Other lines, results leading:

Row | polydispersity [1] | size (nm) [1] [nm] | Encapsulation Efficiency [2] [%] | Apparant Pka [3] | Compound
23 | 0.095 | 67.83 | 93.2 | 7.84 | CCCCCCCCCCCC(=O)OCC1(COC(=O)CCCCCCCCCCC)CCN(C(=O)CCCN(CCC)CCO)CC1 [Compound 36]
24 | 0.079 | 80.24 | 92.5 | 7.29 | CCCCCCCCCCCC(=O)OCC1(COC(=O)CCCCCCCCCCC)CCN(C(=O)CCN(C)CCO)CC1 [Compound 2]
25 | 0.133 | 85.67 | 98.3 | 7.17 | CCCCCCCCCCCC(=O)OCC1(COC(=O)CCCCCCCCCCC)CCN(C(=O)CCN(CCCCC)CCCNc2c(N(C)C)c(=O)c2=O)CC1 [Compound 48]
26 | 0.153 | 69.62 | 89.3 | 7.98 | CCCCCCCCCCCC(=O)OCC1(COC(=O)CCCCCCCCCCC)CCN(C(=O)CCN(CCO)CCCCC)CC1 [Compound 25]
27 | 0.106 | 87.01 | 89.9 | 6.06 | CCCCCCCCCCCCCC(=O)OCC1(COC(=O)CCCCCCCCCCCCC)CCN(C(=O)CCN(CCCCCC)CCCCCC)CC1 [Compound 33]
28 | 0.138 | 91.83 | 89.7 | 7.57 | CCCCCCCCCCCC(=O)OCC1(COC(=O)CCCCCCCCCCC)CCN(C(=O)CCN(CCO)CCCCCC)CC1 [Compound 26]
29 | 0.11 | 71.72 | 93.6 | 8.27 | CCCCCCCCCCCC(=O)OCC1(COC(=O)CCCCCCCCCCC)CCN(C(=O)CCN(CC)CC)CC1 [Compound 27]
30 | 0.142 | 116.2 | 79.2 |  | CCCCCCCCCCCC(=O)OCC1(COC(=O)CCCCCCCCCCC)CCN(C(=O)CCN(CCC)CCC)CC1 [Compound 28]
31 | 0.2 | 54.56 | 99.7 | 7.65 | CCCCCCCCCCCC(=O)OCC1(COCCCCCCCC(=O)OC(CCCCCCCC)CCCCCCCC)CCN(C(=O)CCN(C)C)CC1 [Compound 61]
32 | 0.08 | 70.22 | 95.5 |  | CCCCCCCCCCCC(=O)OCC1(COC(=O)CCCCCCCCCCC)CCN(C(=O)CCN(C)C)CC1 [Compound 9]
